Laboratory results reported in ChEMBL document CHEMBL1687730, “New high-throughput screening assay to reveal similarities and differences in inhibitory sensitivities of multidrug ATP-binding cassette transporters” (Antimicrob Agents Chemother, 2009).

What was measured:
[1] = target: Pleiotropic ABC efflux transporter of multiple drugs (Saccharomyces cerevisiae S288c, UniProt P33302); experiment: Inhibition of Pdr5p-mediated rhodamine 6G transport in Saccharomyces cerevisiae MKPDR5h plasma membrane by spectrofluorometric assay
Chain of Pleiotropic ABC efflux transporter of multiple drugs (P33302 whole entry): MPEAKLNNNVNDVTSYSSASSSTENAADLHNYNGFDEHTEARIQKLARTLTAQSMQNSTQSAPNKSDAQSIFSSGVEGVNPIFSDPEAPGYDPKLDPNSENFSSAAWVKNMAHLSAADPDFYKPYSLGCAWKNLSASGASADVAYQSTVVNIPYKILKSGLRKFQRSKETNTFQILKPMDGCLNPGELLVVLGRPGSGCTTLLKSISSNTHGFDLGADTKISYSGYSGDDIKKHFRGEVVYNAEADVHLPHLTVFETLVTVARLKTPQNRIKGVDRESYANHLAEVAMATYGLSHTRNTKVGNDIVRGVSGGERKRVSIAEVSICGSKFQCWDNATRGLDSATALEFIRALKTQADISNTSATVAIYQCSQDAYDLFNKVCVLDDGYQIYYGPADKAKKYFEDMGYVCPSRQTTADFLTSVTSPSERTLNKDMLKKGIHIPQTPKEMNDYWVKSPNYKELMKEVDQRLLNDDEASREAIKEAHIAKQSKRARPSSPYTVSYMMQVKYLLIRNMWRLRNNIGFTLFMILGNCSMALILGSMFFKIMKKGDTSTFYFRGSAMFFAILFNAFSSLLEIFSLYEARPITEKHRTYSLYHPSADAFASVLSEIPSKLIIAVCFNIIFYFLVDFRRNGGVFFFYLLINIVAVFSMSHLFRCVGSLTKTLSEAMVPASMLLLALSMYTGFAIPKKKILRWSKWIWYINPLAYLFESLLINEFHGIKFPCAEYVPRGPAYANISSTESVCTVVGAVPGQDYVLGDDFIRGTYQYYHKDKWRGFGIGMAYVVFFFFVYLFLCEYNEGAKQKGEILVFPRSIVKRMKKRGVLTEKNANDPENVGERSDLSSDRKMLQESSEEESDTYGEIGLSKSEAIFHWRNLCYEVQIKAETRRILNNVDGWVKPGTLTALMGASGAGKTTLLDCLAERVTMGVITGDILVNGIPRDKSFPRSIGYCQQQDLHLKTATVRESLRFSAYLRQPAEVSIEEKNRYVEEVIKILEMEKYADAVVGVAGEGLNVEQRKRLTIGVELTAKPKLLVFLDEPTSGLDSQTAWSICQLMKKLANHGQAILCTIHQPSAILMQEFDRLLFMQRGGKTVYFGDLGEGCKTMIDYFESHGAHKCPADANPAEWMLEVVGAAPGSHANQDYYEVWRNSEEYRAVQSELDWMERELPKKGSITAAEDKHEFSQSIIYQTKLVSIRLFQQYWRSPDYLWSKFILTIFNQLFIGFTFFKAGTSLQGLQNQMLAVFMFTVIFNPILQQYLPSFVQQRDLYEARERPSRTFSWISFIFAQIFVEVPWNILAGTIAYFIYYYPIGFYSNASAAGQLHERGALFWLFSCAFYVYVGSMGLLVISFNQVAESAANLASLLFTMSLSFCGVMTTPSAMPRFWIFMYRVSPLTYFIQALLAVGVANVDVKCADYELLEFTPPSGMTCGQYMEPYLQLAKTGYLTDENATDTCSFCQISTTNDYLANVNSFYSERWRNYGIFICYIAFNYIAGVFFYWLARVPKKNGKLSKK

[2] = target: Pleiotropic ABC efflux transporter of multiple drugs (Saccharomyces cerevisiae S288c) (UniProt P33302); experiment: Inhibition of Saccharomyces cerevisiae MKPDR5h multidrug transporter Pdr5p assessed as concentration required to threefold increase in rate of fluorescence signal relative to absence of inhibitor by fluorescein diacetate based high-throughput screening spectrofluorometric assay
Chain of Pleiotropic ABC efflux transporter of multiple drugs (Saccharomyces cerevisiae S288c) (P33302 whole entry): as above

Saccharomyces cerevisiae [3] = experiment: Inhibition of Saccharomyces cerevisiae MKCDR1h multidrug transporter Cdr1p assessed as concentration required to threefold increase in rate of fluorescence signal relative to absence of inhibitor by fluorescein diacetate based high-throughput screening spectrofluorometric assay
[4] = target: Snq2p (Saccharomyces cerevisiae (strain Lalvin EC1118 / Prise de mousse)(Baker's yeast)) (UniProt C8Z4T0); experiment: Inhibition of Saccharomyces cerevisiae MKSNQ2h multidrug transporter Snq2p assessed as concentration required to threefold increase in rate of fluorescence signal relative to absence of inhibitor by fluorescein diacetate based high-throughput screening spectrofluorometric assay
Chain of Snq2p (Saccharomyces cerevisiae (strain Lalvin EC1118 / Prise de mousse)(Baker's yeast)) (C8Z4T0 as listed by the source): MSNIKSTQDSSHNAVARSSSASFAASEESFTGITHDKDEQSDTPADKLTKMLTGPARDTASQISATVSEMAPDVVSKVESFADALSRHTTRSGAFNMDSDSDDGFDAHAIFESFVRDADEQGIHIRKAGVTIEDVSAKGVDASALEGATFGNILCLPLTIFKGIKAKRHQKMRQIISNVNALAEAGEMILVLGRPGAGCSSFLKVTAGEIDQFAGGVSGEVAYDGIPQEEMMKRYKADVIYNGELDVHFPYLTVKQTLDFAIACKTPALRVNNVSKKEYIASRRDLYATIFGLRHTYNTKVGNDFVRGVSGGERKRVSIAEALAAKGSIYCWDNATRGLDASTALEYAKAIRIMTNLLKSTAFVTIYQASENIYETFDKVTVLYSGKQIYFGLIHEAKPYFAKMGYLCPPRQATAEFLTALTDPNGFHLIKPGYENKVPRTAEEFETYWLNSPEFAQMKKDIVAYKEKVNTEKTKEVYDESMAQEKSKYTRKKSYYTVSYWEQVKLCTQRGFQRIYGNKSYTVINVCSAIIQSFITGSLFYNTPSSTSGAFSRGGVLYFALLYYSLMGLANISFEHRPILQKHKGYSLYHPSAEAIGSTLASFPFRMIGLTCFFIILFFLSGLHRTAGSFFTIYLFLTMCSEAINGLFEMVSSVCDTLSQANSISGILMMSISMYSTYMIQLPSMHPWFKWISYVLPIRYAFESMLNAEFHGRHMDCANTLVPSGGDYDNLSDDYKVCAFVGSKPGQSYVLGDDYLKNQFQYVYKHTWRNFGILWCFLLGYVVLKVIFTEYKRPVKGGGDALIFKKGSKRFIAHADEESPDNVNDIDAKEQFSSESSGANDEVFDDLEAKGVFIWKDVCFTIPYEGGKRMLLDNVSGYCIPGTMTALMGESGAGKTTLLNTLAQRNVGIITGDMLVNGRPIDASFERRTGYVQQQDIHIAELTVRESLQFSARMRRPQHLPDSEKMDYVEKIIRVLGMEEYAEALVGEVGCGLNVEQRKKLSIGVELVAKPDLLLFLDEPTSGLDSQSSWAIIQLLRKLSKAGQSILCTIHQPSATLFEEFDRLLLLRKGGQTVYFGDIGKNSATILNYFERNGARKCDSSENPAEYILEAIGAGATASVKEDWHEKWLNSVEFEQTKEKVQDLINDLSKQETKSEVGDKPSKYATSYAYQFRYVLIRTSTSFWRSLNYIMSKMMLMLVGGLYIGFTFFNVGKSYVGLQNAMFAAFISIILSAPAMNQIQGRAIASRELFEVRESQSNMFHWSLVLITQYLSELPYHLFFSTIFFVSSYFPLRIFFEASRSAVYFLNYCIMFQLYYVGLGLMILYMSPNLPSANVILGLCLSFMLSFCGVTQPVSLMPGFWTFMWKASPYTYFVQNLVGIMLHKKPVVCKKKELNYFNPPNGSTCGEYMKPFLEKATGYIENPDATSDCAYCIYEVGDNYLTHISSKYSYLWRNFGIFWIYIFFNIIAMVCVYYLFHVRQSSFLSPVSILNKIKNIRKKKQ

Saccharomyces cerevisiae [5] = experiment: Inhibition of Saccharomyces cerevisiae MKCDR1h multidrug transporter Cdr1p assessed as potentiation of ketoconazole-induced antifungal activity by Checkerboard assay

Q: For `COc1ccc2c(c1)N(C[C@@H](C)CN(C)C)c1ccccc1S2` [DEXTROMEPROMAZINE], which IC50 [1] is on record?
A: 9 µM

Q: And the INH [2]?
A: 101 µM

Q: What about the INH (Saccharomyces cerevisiae [3]) of the same molecule?
A: 273 µM

Q: What about the INH [4] of the same molecule?
A: 100 µM

Q: Which results are given for `CSc1ccc2c(c1)N(CCC1CCCCN1C)c1ccccc1S2` (stereo not drawn)?
A: INH [2]: 17 µM; INH (Saccharomyces cerevisiae [3]): 26 µM; INH [4]: 19.4 µM

Q: Which IC50 [1] does the source give for `CN(C)CCCN1c2ccccc2CCc2ccccc21` [IMIPRAMINE] here?
A: 22 µM

Q: And the INH [2]?
A: 166 µM

Q: And the INH (Saccharomyces cerevisiae [3])?
A: > 433 µM

Q: What about the INH [4] of the same molecule?
A: 198 µM

Q: `OCCN1CCN(CCCN2c3ccccc3Sc3ccc(C(F)(F)F)cc32)CC1` [FLUPHENAZINE] was tested. Which IC50 [1] did it give?
A: 1.7 µM

Q: And the INH [2]?
A: 5.4 µM

Q: What about the INH (Saccharomyces cerevisiae [3]) of the same molecule?
A: 12.4 µM

Q: And the INH [4]?
A: 8.8 µM

Q: And the fractional inhibitory concentration index (FICI) (Saccharomyces cerevisiae [5])?
A: 0.09

Q: How did the IC50 [1] turn out when `CN1CCN(CCCN2c3ccccc3Sc3ccc(C(F)(F)F)cc32)CC1` [TRIFLUOPERAZINE] was run?
A: 1.4 µM

Q: What about the INH [2] of the same molecule?
A: 8.3 µM

Q: And the INH (Saccharomyces cerevisiae [3])?
A: 9.8 µM

Q: What about the INH [4] of the same molecule?
A: 6.9 µM

Q: `CC(CN1c2ccccc2Sc2ccccc21)N(C)C` (stereo not drawn) [PROMETHAZINE] was tested. Which IC50 [1] did it give?
A: 17.7 µM

Q: And the INH [2]?
A: 285 µM

Q: What about the INH (Saccharomyces cerevisiae [3]) of the same molecule?
A: 275 µM

Q: And the INH [4]?
A: 117 µM

Q: Which IC50 [1] does the source give for `NCCCN1c2ccccc2Sc2ccc(Cl)cc21` [NOR2-CHLORPROMAZINE] here?
A: 3.2 µM

Q: What about the INH [2] of the same molecule?
A: 4.2 µM

Q: And the INH (Saccharomyces cerevisiae [3])?
A: 4.3 µM

Q: And the INH [4]?
A: 5.8 µM

Q: What does the source list for `CCSc1ccc2c(c1)N(CCCN1CCN(C)CC1)c1ccccc1S2` [THIETHYLPERAZINE]?
A: IC50 [1]: 2.3 µM; INH [2]: 5.6 µM; INH (Saccharomyces cerevisiae [3]): 9.4 µM; INH [4]: 3.2 µM

Q: With `COc1ccc2c(c1)N(C[C@H](C)CN(C)C)c1ccccc1S2` [LEVOMEPROMAZINE] as the molecule, how does the IC50 [1] read?
A: 9.6 µM

Q: What about the INH [2] of the same molecule?
A: 128 µM

Q: And the INH (Saccharomyces cerevisiae [3])?
A: 252 µM

Q: What about the INH [4] of the same molecule?
A: 100 µM

Q: Which results are given for `NCCCN1c2ccccc2Sc2ccc(C(F)(F)F)cc21`?
A: IC50 [1]: 6.4 µM; INH [2]: 7.7 µM; INH (Saccharomyces cerevisiae [3]): 6.5 µM; INH [4]: 6.9 µM

Q: What does the source list for `NCCCN1c2ccccc2Sc2ccccc21`?
A: IC50 [1]: 7.4 µM; INH [2]: 14.7 µM; INH (Saccharomyces cerevisiae [3]): 36 µM; INH [4]: 12.4 µM

Q: How did the IC50 [1] turn out when `CN(C)CCCN1c2ccccc2Sc2ccc(C(F)(F)F)cc21` [TRIFLUPROMAZINE] was run?
A: 4.9 µM

Q: And the INH [2]?
A: 47 µM

Q: And the INH (Saccharomyces cerevisiae [3])?
A: 49 µM

Q: And the INH [4]?
A: 47 µM

Q: Which results are given for `NCCCCN1c2ccccc2Sc2ccccc21`?
A: IC50 [1]: 3.1 µM; INH [2]: 7 µM; INH (Saccharomyces cerevisiae [3]): 29 µM; INH [4]: 13.5 µM

Q: For `CN(C)CCCN1c2ccccc2Sc2ccc(Cl)cc21` [CHLORPROMAZINE], which IC50 [1] is on record?
A: 4.5 µM

Q: What about the INH [2] of the same molecule?
A: 57 µM

Q: And the INH (Saccharomyces cerevisiae [3])?
A: 57 µM

Q: And the INH [4]?
A: 32 µM

Q: What does the source list for `O=C(O)CCCCCCNC1c2ccccc2CCc2ccccc21` [AMINEPTINE]?
A: IC50 [1]: > 400 µM; INH [2]: > 433 µM; INH (Saccharomyces cerevisiae [3]): > 433 µM; INH [4]: > 433 µM

Q: Which IC50 [1] does the source give for `CN1CCN(CCCN2c3ccccc3Sc3ccc(Cl)cc32)CC1` [PROCHLORPERAZINE] here?
A: 1.7 µM

Q: What about the INH [2] of the same molecule?
A: 7.2 µM

Q: What about the INH (Saccharomyces cerevisiae [3]) of the same molecule?
A: 11 µM

Q: And the INH [4]?
A: 6.6 µM

Q: How did the IC50 [1] turn out when `OCCN1CCN(CCCN2c3ccccc3Sc3ccc(Cl)cc32)CC1` [PERPHENAZINE] was run?
A: 1.4 µM

Q: What about the INH [2] of the same molecule?
A: 6.4 µM

Q: And the INH (Saccharomyces cerevisiae [3])?
A: 17.2 µM

Q: What about the INH [4] of the same molecule?
A: 13.1 µM

Q: Which results are given for `c1ccc2c(c1)Nc1ccccc1S2` [PHENOTHIAZINE]?
A: IC50 [1]: > 400 µM; INH [2]: > 433 µM; INH (Saccharomyces cerevisiae [3]): > 433 µM; INH [4]: 90 µM

Q: Which results are given for `CN(C)CCCN1c2ccccc2Sc2ccccc21` [PROMAZINE]?
A: IC50 [1]: 11.3 µM; INH [2]: 96 µM; INH (Saccharomyces cerevisiae [3]): 278 µM; INH [4]: 131 µM

Q: Which results are given for `CCN(CC)CCN1c2ccccc2Sc2ccccc21` [DIETHAZINE]?
A: IC50 [1]: 10.3 µM; INH [2]: 331 µM; INH (Saccharomyces cerevisiae [3]): 317 µM; INH [4]: 239 µM

Q: Which IC50 [1] does the source give for `CN(C)CC/C=C1/c2ccccc2Sc2ccc(Cl)cc21` [CHLORPROTHIXENE] here?
A: 5.1 µM

Q: And the INH [2]?
A: 26 µM

Q: What about the INH (Saccharomyces cerevisiae [3]) of the same molecule?
A: 53 µM

Q: What about the INH [4] of the same molecule?
A: 22 µM

Q: With `NCCCCN1c2ccccc2Sc2ccc(Cl)cc21` as the molecule, how does the IC50 [1] read?
A: 0.7 µM

Q: What about the INH [2] of the same molecule?
A: 1.9 µM

Q: And the INH (Saccharomyces cerevisiae [3])?
A: 1.9 µM

Q: And the INH [4]?
A: 2.1 µM

Q: And the fractional inhibitory concentration index (FICI) (Saccharomyces cerevisiae [5])?
A: 0.06

Q: With `NCCCCN1c2ccccc2Sc2ccc(C(F)(F)F)cc21` as the molecule, how does the IC50 [1] read?
A: 1.3 µM

Q: What about the INH [2] of the same molecule?
A: 3.7 µM

Q: What about the INH (Saccharomyces cerevisiae [3]) of the same molecule?
A: 4.6 µM

Q: And the INH [4]?
A: 4.6 µM
